Reference: patent US5008245A (University of Kentucky Research Foundation, priority 1988, dated 1991)
Like-named read-outs stand apart in the source and are kept apart here.

What was measured:
Assay type in all cases: biochemical
[1] = molecular target: T1, HLE (human leukocyte elastase) (Homo sapiens, UniProt P08246); assay: Inhibition of HLE by desmosine-like peptidyl carbamates, steady state kinetics (Dixon plot, Lineweaver-Burk slope replot)
T1 sequence (P08246 30-267): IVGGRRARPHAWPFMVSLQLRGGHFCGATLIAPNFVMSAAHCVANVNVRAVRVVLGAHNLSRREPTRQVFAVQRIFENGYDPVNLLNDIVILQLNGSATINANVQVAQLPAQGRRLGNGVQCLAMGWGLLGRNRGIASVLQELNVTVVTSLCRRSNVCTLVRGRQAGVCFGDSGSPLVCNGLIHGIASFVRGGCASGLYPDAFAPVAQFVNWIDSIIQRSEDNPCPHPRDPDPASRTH
Description: ^c Lines contained linear regression analysis correlations of >0.950.
^d Ki values determined from LineweaverBurk slope replots. Slope
were obtained from lines with linear regression analysis correlations of
^a Ki value was determined by steady state kinetics.
(§1) These studies are conducted to show the activities of some of the compounds of this invention as inhibitors of various forms of the enzyme elastase.

[2] = molecular target: PPE (porcine pancreatic elastase) (Sus scrofa, UniProt P00772); assay: Inhibition of PPE by peptidyl carbamates; details: Ex. 67 table, N.I. = no inhibition at I/E = 100
Chain of PPE (porcine pancreatic elastase) (P00772 27-266): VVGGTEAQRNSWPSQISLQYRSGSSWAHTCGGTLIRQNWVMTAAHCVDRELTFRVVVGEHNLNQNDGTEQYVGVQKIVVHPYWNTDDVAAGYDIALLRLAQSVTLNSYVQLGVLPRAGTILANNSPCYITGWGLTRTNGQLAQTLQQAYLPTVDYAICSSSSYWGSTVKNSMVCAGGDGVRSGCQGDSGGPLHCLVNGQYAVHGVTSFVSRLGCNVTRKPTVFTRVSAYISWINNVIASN
Description: as §1
^c N.I. refers to no inhibition at I/E = 100.

enzyme elastase = assay: Inhibition of the enzyme elastase, Ki / inhibitor dissociation constants; details: p-nitrophenyl at P1 replaced by N-phenylthiotetrazole
[3] = Table 1, variations in P4, Dixon plot, linear regression correlations >0.950, read-out: Ki value (μM) Dixon
[4] = Table 1, variations in P4, Lineweaver-Burk slope replots, correlations >0.990, read-out: Ki value (μM) Replot
[5] = Ki values (μM) Dixon, Table 2, variations in P3, Dixon plot, linear regression correlations >0.950
[6] = Ki values (μM) Replot, Table 2, variations in P3, Lineweaver-Burk slope replots, correlations >0.990
[7] = Table 2, variations in P3, Dixon plot, linear regression correlations >0.950, read-out: Ki values (μM) Dixon
[8] = Table 2, variations in P3, Lineweaver-Burk slope replots, correlations >0.990, read-out: Ki values (μM) Replot

Compound	Ki [1, 3]	Ki [1, 4]	Ki (μM) PPE ([2]; variations at P4)	Ki [1, 7]	Ki [1, 8]	other results
COC(=O)CCC(=O)NC(CCCCNC(=O)OCc1ccccc1)C(=O)NC(C)C(=O)N1CCCC1C(=O)CN(C(=O)Oc1ccc([N+](=O)[O-])cc1)C(C)C (single isomer, unassigned) [Compound 44a, p-Nitrophenyl N-[Methoxysuccinyl-(Nε -carbobenzoxy)lysylalanylprolylmethyl]-N-isopropylcarbamate]	0.56 µM	0.47 µM	N.I.			
COC(=O)CCC(=O)NC(CCCCNC(=O)OCc1ccccc1)C(=O)NC(C)C(=O)N1CCCC1C(=O)CN(C(=O)Oc1ccc([N+](=O)[O-])cc1)C(C)C (single isomer, unassigned) [Compound 44b, p-Nitrophenyl N-[Methoxysuccinyl-(Nε -carbobenzoxy)lysylalanylprolylmethyl]-N-isopropylcarbamate]	7.3 µM	7.63 µM	N.I.			
COC(=O)CCC(=O)NC(CCCCNC(=O)c1ccccc1)C(=O)NC(C)C(=O)N1CCCC1C(=O)CN(C(=O)Oc1ccc([N+](=O)[O-])cc1)C(C)C (single isomer, unassigned) [Compound 45a, p-Nitrophenyl N-[Methoxysuccinyl-(Nε -benzoyl)lysylalanylprolylmethyl]-N-isopropylcarbamate]	0.73 µM	0.38 µM	N.I.			
COC(=O)CCC(=O)NC(CCCCNC(=O)c1ccccc1)C(=O)NC(C)C(=O)N1CCCC1C(=O)CN(C(=O)Oc1ccc([N+](=O)[O-])cc1)C(C)C (single isomer, unassigned) [Compound 45b, p-Nitrophenyl N-[Methoxysuccinyl-(Nε -benzoyl)lysylalanylprolylmethyl]-N-isopropylcarbamate]	3.7 µM	3.13 µM	N.I.			
COC(=O)CCC(=O)NC(CCCNC(=O)OCc1ccccc1)C(=O)NC(C)C(=O)N1CCCC1C(=O)CN(C(=O)Oc1ccc([N+](=O)[O-])cc1)C(C)C (single isomer, unassigned) [Compound 46a, p-Nitrophenyl N-[Methoxysuccinyl-(Nδ -carbobenzoxy)ornithylalanylprolylmethyl]-N-isopropylcarbamate]	0.43 µM	0.36 µM	N.I.			Ki ([1]; Ex. 67 table, variations at P4, read-out: Ki (μM) HLE): 0.65 µM
COC(=O)CCC(=O)NC(CCCNC(=O)OCc1ccccc1)C(=O)NC(C)C(=O)N1CCCC1C(=O)CN(C(=O)Oc1ccc([N+](=O)[O-])cc1)C(C)C (single isomer, unassigned) [Compound 46b, p-Nitrophenyl N-[Methoxysuccinyl-(Nδ -carbobenzoxy)ornithylalanylprolylmethyl]-N-isopropylcarbamate]	8.8 µM	7.95 µM	N.I.			
COC(=O)CCC(=O)N[C@@H](C)C(=O)N[C@@H](CCCCNC(=O)OCc1ccccc1)C(=O)N1CCC[C@@H]1C(=O)CN(C(=O)Oc1ccc([N+](=O)[O-])cc1)C(C)C [Compound 48b]						Ki ([1]; Ki (μM) HLE, Ex. 67 table, variations at P3): 11.3 µM; Ki [1, 5]: 20.4 µM; Ki [1, 6]: 11.3 µM; Ki (μM) PPE ([2]; variations at P3): N.I.
COC(=O)CCC(=O)N[C@@H](C)C(=O)N[C@@H](CCCCNC(=O)c1ccccc1)C(=O)N1CCC[C@H]1C(=O)CN(C(=O)Oc1ccc([N+](=O)[O-])cc1)C(C)C [Compound 49a]				1.6 µM	0.31 µM	Ki ([2]; variations at P3): 3.8 µM
COC(=O)CCC(=O)N[C@@H](C)C(=O)N[C@@H](CCCCNC(=O)c1ccccc1)C(=O)N1CCC[C@H]1C(=O)CN(C(=O)Oc1ccc([N+](=O)[O-])cc1)C(C)C [Compound 49b]				34 µM	38.5 µM	Ki (μM) PPE ([2]; variations at P3): N.I.
COC(=O)CCC(=O)NC(C)C(=O)NC(CCCNC(=O)OCc1ccccc1)C(=O)N1CCCC1C(=O)CN(C(=O)Oc1ccc([N+](=O)[O-])cc1)C(C)C (stereo not shown) [Compound 50b, p-Nitrophenyl N-[Methoxysuccinylalanyl-(Nδ -carbobenzoxy)ornithylprolymethyl]-N-isopropylcarbamate]				22.2 µM	19.2 µM	Ki (μM) PPE ([2]; variations at P3): N.I.
COC(=O)CCC(=O)NC(C)C(=O)NC(CCCNC(=O)c1ccccc1)C(=O)N1CCCC1C(=O)CN(C(=O)Oc1ccc([N+](=O)[O-])cc1)C(C)C (stereo not shown) [Compound 51a]				5.33 µM	2.14 µM	Ki ([2]; variations at P3): 14.3 µM
COC(=O)CCC(=O)N[C@@H](C)C(=O)N[C@@H](CCCNC(=O)c1ccccc1)C(=O)N1CCC[C@@H]1C(=O)CN(C(=O)Oc1ccc([N+](=O)[O-])cc1)C(C)C [Compound 51b]						Ki [1, 5]: 104 µM; Ki [1, 6]: 100 µM; Ki (μM) PPE ([2]; variations at P3): N.I.
COC(=O)CCC(=O)NC(C)C(=O)NC(CCCCNC(=O)OCc1ccccc1)C(=O)N1CCCC1C(=O)CN(C(=O)Sc1nnnn1-c1ccccc1)C(C)C (stereo not drawn) [PC5, S-(1-Phenyl-5-tetrazoyl)-N-[methoxysuccinyl-alanyl-(N6-carbonbenzoxyl)lysylprolylmethyl]-N-isopropyl thiocarbamate]						Ki (enzyme elastase): 0.02 µM
COC(=O)CCC(=O)NC(CCCNC(=O)OCc1ccccc1)C(=O)NC(C)C(=O)N1CCCC1C(=O)CN(C(=O)Sc1nnnn1-c1ccccc1)C(C)C (stereo not drawn) [PC6, S-(1-Phenyl-5-tetrazoyl)-N-[methoxysuccinyl-Nδ-carbobenzoxyl) ornithyl alanyl prolyl methyl]-N-isopropyl thiocarbamate]						Ki (enzyme elastase): 0.003 µM
p-Nitrophenyl N-[Methoxysuccinyl-(Nδ -benzoyl)ornithylalanylprolylmethyl]-N-isopropylcarbamate [Compound 47a]	0.65 µM	0.19 µM	N.I.			
p-Nitrophenyl N-[Methoxysuccinyl-(Nδ -benzoyl)ornithylalanylprolylmethyl]-N-isopropylcarbamate [Compound 47b]	10 µM	17.7 µM	N.I.			
p-Nitrophenyl N-[Methoxysuccinyl-(Nδ -carbobenzoxy)lysylprolylmethyl]-N-isopropylcarbamate [Compound 48a]				1.1 µM	0.22 µM	Ki ([2]; variations at P3): 3.4 µM
p-Nitrophenyl N-[Methoxysuccinylalanyl-Nδ -carbobenzoxy)ornithylprolylmethyl]-N-isopropylcarbamate [Compound 50a]				0.75 µM	1.05 µM	Ki ([2]; variations at P3): 8.65 µM
